Measured values: patent publication EP4748847A1, “PEPTIDE COMPLEX HAVING VEGFR -2 AGONIST ACTIVITY” (Peptidream Inc, priority 2023, dated 2025)
*1 amine or outer side, *2 acyl side, *3 side chain or, on linkers, in order; H or OH if unused. Where a SMILES comes first, the peptide text is derived from it. Bridges are numbered along the chain shown (N, C = ends). Roman numbers before positions name the chains, in order. [ ]: non-standard residue; d: D form. CO(CH2)2(OCH2CH2)17CO = O=C(CCOCCOCCOCCOCCOCCOCCOCCOCCOCCOCCOCCOCCOCCOCCOCCOCCOCCC(=O)[*:2])[*:1]; X1 = O=C(OCCOCCOCCOCCOCCOCCOCCOCCOCCOCCOCCOCCOCCOCCOCCOCCOC(=O)[*:2])[*:1]; X2 = O=C(OCCOCCOCCOCCOCCOCCOCCOCCOCCOCCOCCOCCOC(=O)[*:2])[*:1]; Phe(4-guanidino) = N=C(N)Nc1ccc(C[C@H](N)C(=O)O)cc1; Trp(7-aza) = N[C@@H](Cc1c[nH]c2ncccc12)C(=O)O; hTyr = N[C@@H](CCc1ccc(O)cc1)C(=O)O; Hyp = O=C(O)[C@@H]1C[C@@H](O)CN1; tBuAla = CC(C)(C)C[C@H](N)C(=O)O; Chg = N[C@H](C(=O)O)C1CCCCC1; Tle = CC(C)(C)[C@H](N)C(=O)O

Molecular target: T1, VEGFR-2 (Homo sapiens, UniProt P35968)
T1 construct: endogenous in cells; host or cells: HUVEC
T1 sequence (P35968 20-1356): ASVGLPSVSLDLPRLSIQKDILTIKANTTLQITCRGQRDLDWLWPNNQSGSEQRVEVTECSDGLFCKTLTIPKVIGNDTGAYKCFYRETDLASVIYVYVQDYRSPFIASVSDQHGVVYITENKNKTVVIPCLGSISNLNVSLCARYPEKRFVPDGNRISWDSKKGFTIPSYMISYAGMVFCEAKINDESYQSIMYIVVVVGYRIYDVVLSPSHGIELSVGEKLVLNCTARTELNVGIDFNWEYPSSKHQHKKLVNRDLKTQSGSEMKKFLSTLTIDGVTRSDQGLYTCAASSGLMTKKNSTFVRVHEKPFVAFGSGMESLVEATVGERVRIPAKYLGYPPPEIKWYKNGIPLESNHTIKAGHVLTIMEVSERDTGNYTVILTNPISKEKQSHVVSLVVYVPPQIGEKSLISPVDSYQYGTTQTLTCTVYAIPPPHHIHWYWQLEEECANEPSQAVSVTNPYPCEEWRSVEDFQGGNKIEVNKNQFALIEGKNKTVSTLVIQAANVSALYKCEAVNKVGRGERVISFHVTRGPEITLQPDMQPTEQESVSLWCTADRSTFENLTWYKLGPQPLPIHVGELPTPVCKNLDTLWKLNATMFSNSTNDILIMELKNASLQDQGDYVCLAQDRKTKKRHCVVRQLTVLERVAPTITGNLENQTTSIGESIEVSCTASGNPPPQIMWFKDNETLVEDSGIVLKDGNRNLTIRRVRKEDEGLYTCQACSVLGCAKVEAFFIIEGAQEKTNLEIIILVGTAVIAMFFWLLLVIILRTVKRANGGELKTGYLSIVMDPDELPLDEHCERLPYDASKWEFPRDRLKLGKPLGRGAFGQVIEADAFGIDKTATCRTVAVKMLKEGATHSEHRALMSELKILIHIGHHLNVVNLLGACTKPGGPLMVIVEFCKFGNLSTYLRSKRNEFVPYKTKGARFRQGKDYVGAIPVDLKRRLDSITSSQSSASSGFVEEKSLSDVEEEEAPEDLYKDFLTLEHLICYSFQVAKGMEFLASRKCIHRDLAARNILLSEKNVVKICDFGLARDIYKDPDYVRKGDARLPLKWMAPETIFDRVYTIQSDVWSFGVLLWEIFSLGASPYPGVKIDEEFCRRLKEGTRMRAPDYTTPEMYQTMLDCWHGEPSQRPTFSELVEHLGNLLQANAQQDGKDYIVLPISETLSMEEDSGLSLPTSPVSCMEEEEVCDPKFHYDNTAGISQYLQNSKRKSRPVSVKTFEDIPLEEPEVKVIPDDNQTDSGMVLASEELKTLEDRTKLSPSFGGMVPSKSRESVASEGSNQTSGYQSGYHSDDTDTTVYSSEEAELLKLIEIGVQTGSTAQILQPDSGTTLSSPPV
Assay: pVEGFR AlphaLISA assay (VEGFR-2 phosphorylation, p-Tyr1175) in HUVECs
Type: cell-based
Settings: 10 minutes stimulation, % activity, maximum VEGF165a signal = 100%, unstimulated = 0%
Description: To evaluate the VEGFR-2 activation ability of the VEGFR-2 agonist peptides of the present invention, VEGFR-2 phosphorylation was verified. HUVECs were cultured using EGM™ -2 Endothelial Cell Growth Medium-2 BulletKit (LONZA; CC-3162). After detaching cells using Tryple (Thermo Fisher Scientific), they were seeded into a 96-well PDL-coated plate (Corning: 354461) at a density of 24,000 cells per well and cultured for 2 days. For starvation, the medium was replaced with EBM-2 medium (LONZA) containing 0.5% FBS (Thermo Fisher Scientific), 0.1% heparin (included with the above LONZA CC-3162), and 0.1% gentamicin (Nacalai), and the cells were cultured for 18 hours. Subsequently, Recombinant Human VEGF165a Protein (R&D Systems) or the peptide was added, and the cells were cultured in a CO2 incubator at 37°C. After 10 minutes of stimulation, cells were lysed using the Lysis Buffer included in the AlphaLISA SureFire Ultra VEGFR-2 (p-Tyr1175) Assay Kit (PerkinElmer) to lyse the cells. The procedure was performed according to the kit protocol, and signal detection was performed using a SpectraMax Paradigm multimode microplate reader (Molecular Devices). The obtained signals were analyzed using GraphPad Prism, and % activity was calculated with the maximum signal induced by VEGF165a set as 100% and the unstimulated control as 0%.
The VEGF165a concentration was evaluated at five points (0.08, 0.31, 1.25, 5, 20 nM) using 1/4-fold dilutions starting from 20 nM to determine the maximum value (100%). Peptide concentrations tested were: 3.2, 16, 80 nM for dimer structure number 1; 10, 100 nM for dimer structures numbers 2-41; and 1.25, 5, 20 nM for dimer structures numbers 42-57. […]
Peptides showing 50% or more activity at 10 nM were designated 2-A, those showing 50% or more activity at 100 nM were designated 2-B, and those showing 1% or more but less than 50% activity at 100 nM were designated 2-C.
Peptides showing 50% or more activity at 1.25 nM were designated 3-A, those showing 50% or more activity at 5 nM were designated 3-B, those showing 50% or more activity at 20 nM were designated 3-C, and those showing 1% or more but less than 50% activity at 20 nM were designated 3-D.

[1] = peptide 1.25, 5, 20 nM (dimer structures 42-57)

| Compound | pVEGFR2 Assay Results [1] | pVEGFR2 Assay Results (peptide 10, 100 nM (dimer structures 2-41)) |
| --- | --- | --- |
| CC(C)C[C@@H]1NC(=O)[C@H](CC(=O)O)NC(=O)[C@H](CC(=O)O)NC(=O)[C@H](CCCCNC(=O)CCOCCOCCOCCOCCOCCOCCOCCOCCOCCOCCOCCOCCOCCOCCOCCOCCOCCC(=O)NCCCC[C@@H]2NC(=O)[C@H](C(C)C)NC(=O)[C@H](CC(=O)O)NC(=O)[C@H](C(C)(C)C)NC(=O)[C@H](Cc3c[nH]c4ccccc34)NC(=O)[C@H](Cc3c[nH]c4ccccc34)NC(=O)CSC[C@@H](C(=O)NCC(N)=O)NC(=O)[C@H](CC(=O)O)NC(=O)[C@H](CCc3ccc(O)cc3)NC(=O)[C@H](Cc3ccc(NC(=N)N)cc3)NC(=O)[C@H](Cc3ccc(O)cc3)NC(=O)[C@H](CC(C)C)NC(=O)[C@H](CC(=O)O)NC(=O)[C@H](CC(=O)O)NC2=O)NC(=O)[C@H](C(C)C)NC(=O)[C@H](CC(=O)O)NC(=O)[C@H](C(C)(C)C)NC(=O)[C@H](Cc2c[nH]c3ccccc23)NC(=O)[C@H](Cc2c[nH]c3ccccc23)NC(=O)CSC[C@@H](C(=O)NCC(N)=O)NC(=O)[C@H](CC(=O)O)NC(=O)[C@H](CCc2ccc(O)cc2)NC(=O)[C@H](Cc2ccc(NC(=N)N)cc2)NC(=O)[C@H](Cc2ccc(O)cc2)NC1=O [compound 45] (I: {CH2CO}-WW[Tle]DVKDDLY[Phe(4-guanidino)][hTyr]DCG-NH2 / II: {CH2CO}-WW[Tle]DVKDDLY[Phe(4-guanidino)][hTyr]DCG-NH2; linker I:6-II:6 via CO(CH2)2(OCH2CH2)17CO; thioether I:N-I:14, II:N-II:14) | 3-C (50% or more activity at 20 nM) |  |
| CC(C)C[C@@H]1NC(=O)[C@H](CC(=O)O)NC(=O)[C@H](CC(=O)O)NC(=O)[C@H](CCCCNC(=O)CCOCCOCCOCCOCCOCCOCCOCCOCCOCCOCCOCCOCCOCCOCCOCCOCCOCCC(=O)NCCCC[C@@H]2NC(=O)[C@H](C(C)C)NC(=O)[C@H](CC(=O)O)NC(=O)[C@H](C(C)(C)C)NC(=O)[C@H](Cc3c[nH]c4ccccc34)NC(=O)[C@H](Cc3c[nH]c4ncccc34)NC(=O)CSC[C@@H](C(=O)NCC(N)=O)NC(=O)[C@H](CC(=O)O)NC(=O)[C@H](CCc3ccc(O)cc3)NC(=O)[C@H](Cc3ccccc3)NC(=O)[C@H](Cc3ccc(O)cc3)NC(=O)[C@H](CC(C)C)NC(=O)[C@H](CC(=O)O)NC(=O)[C@H](CC(=O)O)NC2=O)NC(=O)[C@H](C(C)C)NC(=O)[C@H](CC(=O)O)NC(=O)[C@H](C(C)(C)C)NC(=O)[C@H](Cc2c[nH]c3ccccc23)NC(=O)[C@H](Cc2c[nH]c3ncccc23)NC(=O)CSC[C@@H](C(=O)NCC(N)=O)NC(=O)[C@H](CC(=O)O)NC(=O)[C@H](CCc2ccc(O)cc2)NC(=O)[C@H](Cc2ccccc2)NC(=O)[C@H](Cc2ccc(O)cc2)NC1=O [compound 46] (I: {CH2CO}-[Trp(7-aza)]W[Tle]DVKDDLYF[hTyr]DCG-NH2 / II: {CH2CO}-[Trp(7-aza)]W[Tle]DVKDDLYF[hTyr]DCG-NH2; linker I:6-II:6 via CO(CH2)2(OCH2CH2)17CO; thioether I:N-I:14, II:N-II:14) | 3-C (50% or more activity at 20 nM) |  |
| CC(C)[C@@H]1NC(=O)[C@H](CC(=O)O)NC(=O)[C@H](C(C)(C)C)NC(=O)[C@H](Cc2c[nH]c3ccccc23)NC(=O)[C@H](Cc2c[nH]c3ccccc23)NC(=O)CSC[C@@H](C(=O)NCC(N)=O)NC(=O)[C@@H]2C[C@@H](O)CN2C(=O)[C@H](CCc2ccc(O)cc2)NC(=O)[C@H](Cc2ccc(NC(=N)N)cc2)NC(=O)[C@H](Cc2ccc(O)cc2)NC(=O)[C@H](CC(C)(C)C)NC(=O)[C@H](CC(=O)O)NC(=O)[C@H](CC(=O)O)NC(=O)[C@H](CCCCNC(=O)OCCOCCOCCOCCOCCOCCOCCOCCOCCOCCOCCOCCOC(=O)NCCCC[C@@H]2NC(=O)[C@H](C(C)C)NC(=O)[C@H](CC(=O)O)NC(=O)[C@H](C(C)(C)C)NC(=O)[C@H](Cc3c[nH]c4ccccc34)NC(=O)[C@H](Cc3c[nH]c4ccccc34)NC(=O)CSC[C@@H](C(=O)NCC(N)=O)NC(=O)[C@@H]3C[C@@H](O)CN3C(=O)[C@H](CCc3ccc(O)cc3)NC(=O)[C@H](Cc3ccc(NC(=N)N)cc3)NC(=O)[C@H](Cc3ccc(O)cc3)NC(=O)[C@H](CC(C)(C)C)NC(=O)[C@H](CC(=O)O)NC(=O)[C@H](CC(=O)O)NC2=O)NC1=O [compound 54] (I: {CH2CO}-WW[Tle]DVKDD[tBuAla]Y[Phe(4-guanidino)][hTyr][Hyp]CG-NH2 / II: {CH2CO}-WW[Tle]DVKDD[tBuAla]Y[Phe(4-guanidino)][hTyr][Hyp]CG-NH2; linker I:6-II:6 via X2; thioether I:N-I:14, II:N-II:14) | 3-B (50% or more activity at 5 nM) |  |
| CC(C)[C@@H]1NC(=O)[C@H](CC(=O)O)NC(=O)[C@H](C(C)(C)C)NC(=O)[C@H](Cc2c[nH]c3ccccc23)NC(=O)[C@H](Cc2c[nH]c3ccccc23)NC(=O)CSC[C@@H](C(=O)NCC(N)=O)NC(=O)[C@H](CC(=O)O)NC(=O)[C@H](CCc2ccc(O)cc2)NC(=O)[C@H](Cc2ccc(NC(=N)N)cc2)NC(=O)[C@H](Cc2ccc(O)cc2)NC(=O)[C@H](CC(C)(C)C)NC(=O)[C@H](CC(=O)O)NC(=O)[C@H](CC(=O)O)NC(=O)[C@H](CCCCNC(=O)OCCOCCOCCOCCOCCOCCOCCOCCOCCOCCOCCOCCOCCOCCOCCOCCOC(=O)NCCCC[C@@H]2NC(=O)[C@H](C(C)C)NC(=O)[C@H](CC(=O)O)NC(=O)[C@H](C(C)(C)C)NC(=O)[C@H](Cc3c[nH]c4ccccc34)NC(=O)[C@H](Cc3c[nH]c4ccccc34)NC(=O)CSC[C@@H](C(=O)NCC(N)=O)NC(=O)[C@H](CC(=O)O)NC(=O)[C@H](CCc3ccc(O)cc3)NC(=O)[C@H](Cc3ccc(NC(=N)N)cc3)NC(=O)[C@H](Cc3ccc(O)cc3)NC(=O)[C@H](CC(C)(C)C)NC(=O)[C@H](CC(=O)O)NC(=O)[C@H](CC(=O)O)NC2=O)NC1=O [compound 53] (I: {CH2CO}-WW[Tle]DVKDD[tBuAla]Y[Phe(4-guanidino)][hTyr]DCG-NH2 / II: {CH2CO}-WW[Tle]DVKDD[tBuAla]Y[Phe(4-guanidino)][hTyr]DCG-NH2; linker I:6-II:6 via X1; thioether I:N-I:14, II:N-II:14) | 3-B (50% or more activity at 5 nM) |  |
| CC(C)C[C@@H]1NC(=O)[C@H](CC(=O)O)NC(=O)[C@H](CC(=O)O)NC(=O)[C@H](CCCCNC(=O)CCOCCOCCOCCOCCOCCOCCOCCOCCOCCOCCOCCOCCOCCOCCOCCOCCOCCC(=O)NCCCC[C@@H]2NC(=O)[C@H](C(C)C)NC(=O)[C@H](CC(=O)O)NC(=O)[C@H](C3CCCCC3)NC(=O)[C@H](Cc3c[nH]c4ccccc34)NC(=O)[C@H](Cc3c[nH]c4ccccc34)NC(=O)CSC[C@@H](C(=O)NCC(N)=O)NC(=O)[C@H](CC(=O)O)NC(=O)[C@H](CCc3ccc(O)cc3)NC(=O)[C@H](Cc3ccccc3)NC(=O)[C@H](Cc3ccc(O)cc3)NC(=O)[C@H](CC(C)C)NC(=O)[C@H](CC(=O)O)NC(=O)[C@H](CC(=O)O)NC2=O)NC(=O)[C@H](C(C)C)NC(=O)[C@H](CC(=O)O)NC(=O)[C@H](C2CCCCC2)NC(=O)[C@H](Cc2c[nH]c3ccccc23)NC(=O)[C@H](Cc2c[nH]c3ccccc23)NC(=O)CSC[C@@H](C(=O)NCC(N)=O)NC(=O)[C@H](CC(=O)O)NC(=O)[C@H](CCc2ccc(O)cc2)NC(=O)[C@H](Cc2ccccc2)NC(=O)[C@H](Cc2ccc(O)cc2)NC1=O [compound 25] (I: {CH2CO}-WW[Chg]DVKDDLYF[hTyr]DCG-NH2 / II: {CH2CO}-WW[Chg]DVKDDLYF[hTyr]DCG-NH2; linker I:6-II:6 via CO(CH2)2(OCH2CH2)17CO; thioether I:N-I:14, II:N-II:14) |  | 2-C (1% or more but less than 50% activity at 100 nM) |
